In ChEMBL document CHEMBL1201862, “PubChem BioAssay data set” (2004):
Values joined by “and” are separate entries in the source; they are usually repeats but may differ in a detail not shown here. Identical values can stand only once. Active and inactive are the calls of the source.

Tests used:
[1] = biological target: T1, Dual specificity protein phosphatase 6 (Rattus norvegicus, UniProt Q64346); assay type: functional
T1 sequence (Q64346 whole entry): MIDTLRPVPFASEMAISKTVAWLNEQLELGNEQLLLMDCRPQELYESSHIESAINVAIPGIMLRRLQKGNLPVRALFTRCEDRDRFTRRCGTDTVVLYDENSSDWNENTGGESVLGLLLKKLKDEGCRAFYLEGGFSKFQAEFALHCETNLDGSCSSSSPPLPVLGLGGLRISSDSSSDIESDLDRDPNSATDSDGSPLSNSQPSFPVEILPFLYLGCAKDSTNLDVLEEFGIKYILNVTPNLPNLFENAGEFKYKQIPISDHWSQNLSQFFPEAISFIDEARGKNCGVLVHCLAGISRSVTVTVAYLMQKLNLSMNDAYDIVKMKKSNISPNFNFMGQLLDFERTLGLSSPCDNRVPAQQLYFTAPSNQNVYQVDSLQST

[2] = biological target: T1, Dual specificity protein phosphatase 6
[3] = biological target: Glyceraldehyde-3-phosphate dehydrogenase (Homo sapiens, UniProt P04406)
[4] = biological target: T2, Tyrosine-protein phosphatase non-receptor type 7 (Homo sapiens, UniProt P35236); assay type: functional
T2 sequence (P35236 whole entry): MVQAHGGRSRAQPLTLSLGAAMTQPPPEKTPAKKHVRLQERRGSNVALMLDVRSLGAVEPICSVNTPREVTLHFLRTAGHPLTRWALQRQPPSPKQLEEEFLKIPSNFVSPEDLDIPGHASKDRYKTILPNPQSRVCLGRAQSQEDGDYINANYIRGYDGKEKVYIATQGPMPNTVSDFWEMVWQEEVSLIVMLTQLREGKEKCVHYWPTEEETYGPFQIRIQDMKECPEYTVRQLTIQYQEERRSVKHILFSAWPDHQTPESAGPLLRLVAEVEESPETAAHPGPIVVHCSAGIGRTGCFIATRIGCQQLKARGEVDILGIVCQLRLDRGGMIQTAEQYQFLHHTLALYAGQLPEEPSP

Protein Rev = Protein Rev (Human immunodeficiency virus type 1 group M subtype B (isolate HXB2)(HIV-1), UniProt P04618); assay: inhibitors of Rev binding to RRE RNA, dose response, biochemical, fluorescence polarization, HIV-1 (AID 434976); set-up: species or system Human immunodeficiency virus 1
[5] = biological target: Female germline-specific tumor suppressor gld-1 (Caenorhabditis elegans, UniProt Q17339); assay: inhibitors of GLD-1 binding to TGE RNA, dose response, biochemical, fluorescence polarization, C. elegans (AID 2802);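 further: fluorescence polarization of labeled TGE RNA bound by purified gld-1 protein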
[6] = biological target: T3, Eukaryotic translation initiation factor 2-alpha kinase 3 (Homo sapiens, UniProt Q9NZJ5); assay: Dose response cell-based high-throughput screening assay to measure PERK inhibition. [Related pubchem assays: 1416 ]; assay type: functional
T3 sequence (Q9NZJ5 whole entry): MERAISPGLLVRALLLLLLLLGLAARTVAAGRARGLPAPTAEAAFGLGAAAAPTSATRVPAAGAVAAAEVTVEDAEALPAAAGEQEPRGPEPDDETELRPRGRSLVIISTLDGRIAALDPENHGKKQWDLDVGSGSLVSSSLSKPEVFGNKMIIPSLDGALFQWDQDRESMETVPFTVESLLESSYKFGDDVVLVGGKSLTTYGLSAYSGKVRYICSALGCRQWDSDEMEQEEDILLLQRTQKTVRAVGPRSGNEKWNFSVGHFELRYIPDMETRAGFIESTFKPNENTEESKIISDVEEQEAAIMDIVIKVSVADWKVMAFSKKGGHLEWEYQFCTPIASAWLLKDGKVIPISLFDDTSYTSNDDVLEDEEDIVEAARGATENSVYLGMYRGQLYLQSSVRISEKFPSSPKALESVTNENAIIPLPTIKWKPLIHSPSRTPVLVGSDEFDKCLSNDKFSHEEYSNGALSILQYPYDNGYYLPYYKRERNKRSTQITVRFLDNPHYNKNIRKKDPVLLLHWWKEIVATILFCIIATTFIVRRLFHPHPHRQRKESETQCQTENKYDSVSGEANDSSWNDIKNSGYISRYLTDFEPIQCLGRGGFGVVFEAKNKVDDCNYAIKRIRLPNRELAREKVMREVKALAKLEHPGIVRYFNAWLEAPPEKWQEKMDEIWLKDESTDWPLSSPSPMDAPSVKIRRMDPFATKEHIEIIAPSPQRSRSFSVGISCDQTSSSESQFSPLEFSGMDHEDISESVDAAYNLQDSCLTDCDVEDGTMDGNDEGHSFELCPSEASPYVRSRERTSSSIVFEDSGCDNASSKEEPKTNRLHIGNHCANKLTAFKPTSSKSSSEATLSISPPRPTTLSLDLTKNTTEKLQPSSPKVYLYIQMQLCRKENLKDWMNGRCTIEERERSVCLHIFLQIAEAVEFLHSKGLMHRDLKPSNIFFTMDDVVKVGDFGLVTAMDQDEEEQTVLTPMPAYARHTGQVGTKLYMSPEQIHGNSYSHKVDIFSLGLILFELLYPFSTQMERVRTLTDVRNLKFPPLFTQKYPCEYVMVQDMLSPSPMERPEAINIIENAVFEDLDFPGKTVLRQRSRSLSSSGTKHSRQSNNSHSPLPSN

[7] = biological target: T3, Eukaryotic translation initiation factor 2-alpha kinase 3; assay: Counterscreen assay for PERK inhibitors: Dose response cell-based high throughput screening assay to measure inhibition of PERK at 6 hours. [Related pubchem assays: 1522, 1416 ]; assay type: functional
[8] = biological target: Acyl-homoserine lactone acylase PvdQ (Pseudomonas aeruginosa (strain LESB58), UniProt Q9I194); assay: P. aeruginosa PvdQ acylase inhibitors, dose response, biochemical, fluorescence, plate reader and imaging, cherry-picks (AID 493231)
Genome polyprotein = Genome polyprotein (dengue virus type 2, UniProt P29990); assay: Dengue-2 NS5 methyltransferase inhibitors, primary screen, biochemical, confirmation dose response (AID 588689); assay type: functional
NS3 = NS3 (Hepatitis C virus, UniProt A3EZJ3); assay: PubChem AID 2173; set-up: species or system Hepacivirus hominis
Vero = Vero cell cytotoxicity, cytotoxicity control for flavivirus capping enzyme inhibitors (AID 588742); assay type: functional; conditions: Chlorocebus sabaeus
[9] = Luminescence Cell-Based Dose Confirmation HTS to Identify Inhibitors of Platelet Dense Granule Release. [Related pubchem assays: 1663 (Primary HTS), 1678 (Summary of Project)]; assay type: functional
[10] = HIV-1 Env-mediated cell fusion inhibitors, dose response, CCR5-tropic Env (AID 2279); assay type: functional
[11] = biological target: Luciferin 4-monooxygenase (Photinus pyralis, UniProt P08659); assay: firefly luciferase enzyme inhibitors, dose response, biochemical, luminescence (AID 1891)
[12] = Luminescence Cell-Based Dose Confirmation HTS to Identify Activators of 5'UTR Stem-Loop Driven Alpha-Synuclein mRNA Translation in H4 Neuroglioblastoma Cells. [Related pubchem assays: 1829 (Project Summary), 1814 (Primary HTS)]; assay type: functional
H4 = assay: Luminescence Cell-Based Dose Response HTS to Identify Activators of 5'UTR Stem-Loop Driven Prion Protein mRNA Translation in H4 Neuroglioblastoma Cells. [Related pubchem assays: 1829 (Project Summary), 1814 (Primary HTS)]; assay type: functional; conditions: Homo sapiens
Tumor necrosis factor = Tumor necrosis factor (Homo sapiens, UniProt P01375); assay: TNFa-triggered NF-kB activation inhibitors, SAR follow-up, cell-based, revised (AID 2337); assay type: functional
[13] = biological target: T4, Nucleotide-binding oligomerization domain-containing protein 1 (Homo sapiens, UniProt Q9Y239); assay: NOD1 signaling inhibitors, SAR follow-up, revised (AID 2333); assay type: functional
T4 sequence (Q9Y239 whole entry): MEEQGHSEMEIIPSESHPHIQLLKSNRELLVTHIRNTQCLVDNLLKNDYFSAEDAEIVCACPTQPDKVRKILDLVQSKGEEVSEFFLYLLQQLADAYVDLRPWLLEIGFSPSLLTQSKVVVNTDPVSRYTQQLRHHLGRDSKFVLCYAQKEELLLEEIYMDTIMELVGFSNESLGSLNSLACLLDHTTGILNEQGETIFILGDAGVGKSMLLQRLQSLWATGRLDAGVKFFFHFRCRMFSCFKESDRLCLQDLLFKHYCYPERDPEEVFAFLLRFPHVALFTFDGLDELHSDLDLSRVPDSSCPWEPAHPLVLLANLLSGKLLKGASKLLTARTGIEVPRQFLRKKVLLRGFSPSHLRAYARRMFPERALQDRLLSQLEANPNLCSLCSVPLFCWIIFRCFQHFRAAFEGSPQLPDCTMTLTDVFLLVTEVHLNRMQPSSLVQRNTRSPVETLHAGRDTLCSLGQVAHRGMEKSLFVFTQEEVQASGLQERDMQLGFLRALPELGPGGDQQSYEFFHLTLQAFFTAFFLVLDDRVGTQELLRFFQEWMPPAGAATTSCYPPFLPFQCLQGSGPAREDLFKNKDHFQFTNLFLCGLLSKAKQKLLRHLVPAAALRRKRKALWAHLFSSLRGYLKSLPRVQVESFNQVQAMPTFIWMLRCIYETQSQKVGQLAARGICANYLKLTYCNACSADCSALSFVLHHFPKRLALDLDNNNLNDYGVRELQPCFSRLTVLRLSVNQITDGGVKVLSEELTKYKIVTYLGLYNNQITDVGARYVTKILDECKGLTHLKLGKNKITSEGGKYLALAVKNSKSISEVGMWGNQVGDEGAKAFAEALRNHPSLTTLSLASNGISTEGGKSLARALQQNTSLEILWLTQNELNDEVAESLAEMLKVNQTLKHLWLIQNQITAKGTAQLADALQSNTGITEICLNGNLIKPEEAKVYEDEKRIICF

HEK293 = assay: cells; conditions: Homo sapiens;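 further: cells exposed to compound for 14 hours overnight before viability readout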
[14] = biological target: Nucleotide-binding oligomerization domain-containing protein 2 (Homo sapiens, UniProt Q9HC29); assay: PubChem AID 2334; assay type: functional
X-box-binding protein 1 = X-box-binding protein 1 (Homo sapiens, UniProt P17861); assay type: functional, Cricetulus griseus;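 further: confirmatory dose-response counter-screen serving a CHOP assay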

CC(C)CNc1nc(=O)n(-c2ccc(F)cc2)c(=O)[nH]1
IC50 [1]: > 100 µM (inactive) | IC50 [2]: > 100 µM (inactive) | IC50 [3]: > 100 µM (not active) | IC50 [4]: > 100 µM (not active)

Cc1cc2ccccn2c1C(=O)C(=O)O
IC50 [1]: > 100 µM (inactive) | IC50 [2]: > 100 µM (inactive) | IC50 [3]: > 100 µM (not active) | IC50 [4]: > 100 µM (not active)

Nc1cccc(C(=O)OCC(=O)Nc2cccc3c2C(=O)c2ccccc2C3=O)c1
IC50 (Protein Rev): 5.22 µM (active) | IC50 [5]: 1.96 µM (active)

CCc1cccc(C)c1NC(=O)Nc1ccc2c(c1)OCO2
EC50 [6]: > 55.7 µM (not active) | EC50 [7]: > 55.7 µM (not active)

CN1CCOCCOCCN(C)C(=O)N2CCOCCOCCN(CCOCC2)C1=O
EC50 [6]: > 55.7 µM (not active) | EC50 [7]: > 55.7 µM (not active)

Cc1ccc2c(c1)C1C3CCC(C3)C1[S+]([O-])N2 (centres undefined)
AC50 [8]: 25.6 µM (active)

CCOC(=O)c1ccc(N2C(=O)C(C)=C(C)C2=O)cc1
AC50 [8]: 25 µM (active)

Cc1cc(N2C(=O)C(O)=C(C(=O)c3ccc(C)o3)C2c2cccc(Oc3ccccc3)c2)no1 (centres undefined)
IC50 (Genome polyprotein): 32 µM (active) | IC50 (NS3): 1.95 µM (active) | CC50 (Vero): > 40 µM (active)

CCOC(=O)c1sc(N2C(=O)C(O)=C(C(=O)c3ccc(C)o3)C2c2cccc([N+](=O)[O-])c2)nc1C (centres undefined)
EC50 [9]: 18.5 µM (active) | IC50 [10]: 41.1 µM (active) | EC50 [11]: > 112 µM (not active)

COc1ccc(C(=O)C2=C(O)C(=O)N(c3ccccn3)C2c2ccc(C(C)C)cc2)cc1 (centres undefined)
EC50 [12]: 22.4 µM (active) | IC50 (NS3): 6.24 µM (active) | EC50 (H4): 17 µM (active)

O=C(Nc1ccc(Br)cc1)c1ccc(CN2CCc3ccccc3C2)cc1
IC50 (Tumor necrosis factor): 1.5 µM (active) and 10.9 µM (active) | IC50 [13]: 1.03 µM (active) and 399 nM (active) | IC50 (HEK293): > 20 µM (inactive) | IC50 [14]: 1.62 µM (active)

O=C(Nc1nc2ccccc2n1Cc1ccccc1Cl)c1ccco1
IC50 (Tumor necrosis factor): > 20 µM (inactive) | IC50 [13]: > 20 µM (inactive) | IC50 (HEK293): > 20 µM (inactive) | IC50 [14]: > 20 µM (inactive)

Cc1cc(/C=N/Nc2nc(N)ncc2[N+](=O)[O-])c(C)n1-c1cccc(C(F)(F)F)c1
Absolute IC50 (XBP1) (X-box-binding protein 1): 10 µM
